Key:
[1] = aqueous solubility of the active agent; type: physicochemical; conditions: pH 7.4
Method: (§1) Since then several types of HIV-1 protease inhibitors have become known. […] The latter effect is presently attributed to the extremely low aqueous solubility (8 mg/1000 ml at pH 7.4).

[2] = half-life in in-vivo pharmaceutical models (mouse); conditions: some in-vivo pharmaceutical models (mouse)
Method: as §1

oral bioavailability = conditions: in vivo
Method: as §1

Q: Which results are given for COc1ccc(C[C@H](C[C@H](O)[C@H](Cc2ccccc2)NC(=O)OC(C)(C)C)C(=O)N[C@H](C(=O)N[C@@H](Cc2ccccc2)C(=O)N2CCOCC2)C(C)C)cc1 [HIV-1 protease inhibitor (A), 5(S)-tert.-Butoxycarbonyl-amino-4(S)-hydroxy-2(R)-4-methoxyphenylmethyl-6-phenyl-hexanoyl-(L)-Val-(L)-Phe-morpholin-4-ylamide]?
A: aqueous solubility [1]: 8 mg/1000 ml; half-life [2]: relatively short half-life; oral bioavailability (oral bioavailability): insufficient oral bioavailability

From patent US20070275969A1, “NANOPARTICLES FOR ORAL ADMINISTRATION OF PHARMACEUTICAL AGENTS OF LOW SOLUBILITY” (priority 1995, published 2007)
